Laboratory results from patent publication US20080280862A1, “Methods, compositions, and kits for the treatment of pain” (priority 2007, published 2008).

Test system: TNFα
Test: TNFα secretion by human white blood cells stimulated with PMA/ionomycin, synergy score
Format: cell-based
Set-up: key: S = Σ Idata(Idata−ILoewe) × ln dilution factors; volume over Loewe additivity
Details: PBMC stimulated with PMA/Ionomycin
Protocol: A 100 μl suspension of diluted human white blood cells contained within each well of a polystyrene 384-well plate (NalgeNunc) was stimulated to secrete TNFα by treatment with a final concentration of 10 ng/mL phorbol 12-myristate 13-acetate (Sigma, P-1585) and 750 ng/mL ionomycin (Sigma, I-0634). Various concentrations of each test compound were added at the time of stimulation. After 16-18 hours of incubation at 37° C. in a humidified incubator, the plate was centrifuged and the supernatant transferred to a white opaque polystyrene 384-well plate (NalgeNunc, Maxisorb) coated with an anti-TNFα antibody (PharMingen, #551220). After a two-hour incubation, the plate was washed (Tecan PowerWasher 384) with PBS containing 0.1% Tween 20 and incubated for an additional one hour with another anti-TNFα antibody that was biotin labeled (PharMingen, #554511) and HRP coupled to strepavidin (PharMingen, #13047E). After the plate was washed with 0.1% Tween 20/PBS, an HRP-luminescent substrate was added to each well and light intensity measured using a LJL Analyst plate luminometer.
The synergy scores calculated for the various combinations of compounds set forth in Table 3 was calculated by the formula S=log fX log fYΣIdata(Idata−ILoewe), summed over all non-single-agent concentration pairs, and where log fX,Y are the natural logarithm of the dilution factors used for each single agent. This effectively calculates a volume between the measured and Loewe additive response surfaces, weighted towards high inhibition and corrected for varying dilution factors.

[1] = combination with Hydrocortisone

SMILES	Synergy Score based on TNF-α inhibition (combination with Betamethasone)	Synergy Score based on TNF-α inhibition (combination with Budesonide)	Synergy Score based on TNF-α inhibition (combination with Clobetasol)	Synergy Score based on TNF-α inhibition (combination with Dexamethasone)	Synergy Score based on TNF-α inhibition (combination with Diflorasone)	Synergy Score based on TNF-α inhibition [1]	Synergy Score based on TNF-α inhibition (combination with Prednisolone)	Synergy Score based on TNF-α inhibition (combination with Triamcinolone)
CN(C)CCCN1c2ccccc2CCc2ccc(Cl)cc21 [Clomipramine]	0.78	0.61	0.65	1.2	0.55	0.6	0.82	0.5
CNCCCN1c2ccccc2CCc2ccccc21 [Desipramine]	0.69	1	0.52	1.6	0.5	0.74	1.3	0.44
CN(C)CCCN1c2ccccc2CCc2ccccc21 [Imipramine]	0.34	0.88	–	–	0.43	0.82	0.61	0.34
CN1CCC(=C2c3ccccc3C=Cc3ccccc32)CC1 [Cyproheptadine]	0.8	0.56	–	1.3	–	0.75	1.3	0.57
CNCCCC1c2ccccc2C=Cc2ccccc21 [Protriptyline]	0.53	1.2	0.95	1.3	0.67	0.68	1.1	0.37
